Measured values taken from publication PMC10755736, “Modulating Liquid–Liquid Phase Separation of Nck Adaptor Protein against Enteropathogenic Escherichia coli Infection” (ACS Central Science, 2023).
Entries after “also recorded” stand apart in the source; their conditions may differ. Non-standard residues stand in square brackets, D forms with d. Residues, ends and D or L forms follow the SMILES beside them. *: point of attachment. Biotin = O=C1N[C@H]2[C@H](CS[C@H]2CCCCC(=O)*)N1; Benzoyl(4-SO2F) = O=C(c1ccc(S(=O)(=O)F)cc1)*; pY = N[C@@H](Cc1ccc(OP(=O)(O)O)cc1)C(=O)O; Dap = NC[C@H](N)C(=O)O

Experiments:
Nck-SH2K331A = assay: Covalent reaction of p1 with Nck-SH2 K331A mutant; format: binding; details: PBS, 37 °C, 1 min or 10 min; SDS-PAGE
Description: We next identified the residues in Nck-SH2 that are involved in the reaction with p1 by mass spectrometry. […] The Nck–p1 conjugate was digested with trypsin, and peptide fragments were analyzed with an in-line EASY-spray source and nano-LC UltiMate 3000 HPLC system interfaced with an Elite mass spectrometer, operated in the data-dependent acquisition (DDA) mode with one full MS scan at R = 60,000 (m/z = 200) mass followed by HCD MS/MS scans. […] The fragmentation spectral analysis of [EEHIpYXEVAAD(α)] + [HFKVQLK(β)] extracted by pLabel v2.4.3.0 (Figure 5a and Figure S6 in the Supporting Information)[38],[39] confirmed the ligand-directed conjugation of Nck-SH2 protein with p1 peptide. The underlined lysine residue in the β-chain sequence indicated the cross-linked site on the predicted Nck Lys331 residue. Next, we mutated Nck Lys331 to Ala, expressed and purified the Nck-SH2K331A mutant. […]
The reaction mixture of Nck and p1 were digested with trypsin. Digested peptides were analyzed with an in-line EASY-spray source and nano-LC UltiMate 3000 high-performance liquid chromatography system (Thermo Fisher, USA) interfaced with an Elite mass spectrometer (Thermo Fisher, USA). The eluted peptides were detected by the Elite mass spectrometer, which was operated in data-dependent mode with one full MS scan at R = 60,000 (m/z = 200) mass, followed by MS/MS scans. […]

Nck = biological target: T1, Nck (Homo sapiens, UniProt P16333); assay: Crosslinking of peptides with recombinant Nck in vitro (SDS-PAGE, Western blotting); format: binding; details: PBS, 1 h
T1 construct: GST (followed by PreScission/HRV 3C site) (N, cleaved yes); made in house; host or cells: E. coli BL21(DE3)
Description: Although peptide Y474 can block Nck-mediated LLPS, the requirement of a high concentration of the blocker peptide is hard to achieve inside the cell. […] The side chains of the Nck lysine residues are pointing toward the residues at pY+1 and pY+2 positions with distances of only 4 to 6 Å. This unique feature gives us an opportunity to design covalent blockers for Nck-SH2 by installing electrophiles at the pY+1 or pY+2 positions to enable a proximal conjugation reaction with one of the lysine residues. Covalent blockage through the characteristic lysine residues will maximize the specificity of the inhibitor toward Nck-SH2. As sulfonyl fluoride has been reported to react with proteinaceous nucleophiles such as lysine, histidine, or cysteine,[34] we installed a sulfonyl fluoride group on the side chain of diaminopropionic acid, giving an unnatural amino acid X1 at different positions such as pY+1 (Asp6) and pY+3 (Val8) of peptide EEHIpYDEVAAD. Besides the amino acid X1, we also included α-chloroacetyl-carrying amino acids X2 and X3, which may also react with proteineous nucleophiles. Electrophile-containing reactive peptides p1 to p11 were synthesized with a biotin tag at the N-termini (Figure 4b). After the reactive peptides were incubated with recombinant Nck protein at a 5:1 ratio at 37 °C in PBS for 1 h, the formation of covalently linked Nck–peptide conjugates could be observed, shown as new protein bands with molecular weights higher than that of Nck based on denatured SDS-PAGE and Western blotting analysis against biotin (Figure 4c). […] At 37 °C in PBS buffer, the 1:1 reaction efficiency reached 50% in 2 min (Figure S4 in the Supporting Information).
Figure 4 Covalently reactive peptides designed based on a Tir peptide. (a) Crystal structure of Nck-SH2 in complex with a peptide EEHIpYDEVAAD from EPEC protein Tir (PDB: 2CI9). (b) List of synthetic reactive peptides. (c) Unnatural amino acids in the peptides. (d) SDS-PAGE (top) and Western blotting (bottom) analyses showing covalent conjugation of the peptides with Nck. […]

CC[C@H](C)[C@H](NC(=O)[C@H](Cc1c[nH]cn1)NC(=O)[C@H](CCC(=O)O)NC(=O)[C@H](CCC(=O)O)NC(=O)CCCC[C@@H]1SC[C@@H]2NC(=O)N[C@@H]21)C(=O)N[C@@H](Cc1ccc(OP(=O)(O)O)cc1)C(=O)N[C@@H](CNC(=O)c1ccc(S(=O)(=O)F)cc1)C(=O)N[C@@H](CCC(=O)O)C(=O)N[C@H](C(=O)N[C@@H](C)C(=O)N[C@@H](C)C(=O)N[C@@H](CC(=O)O)C(N)=O)C(C)C [p1] (Biotin-EEHI[pY][Dap](Benzoyl(4-SO2F))EVAAD-NH2; N-terminus and C-terminus assumed)
reactivity with Nck-SH2 K331A (Nck-SH2K331A): did not show noticeable reactivity; also recorded: abolished the covalent reaction | number of Nck–peptide conjugate bands (Nck; p1:Nck 5:1, 37 °C, SDS-PAGE): only one Nck–peptide conjugate band | reactivity with Nck (Nck; peptide:Nck 5:1, 37 °C, SDS-PAGE and anti-biotin Western blotting): highest cross-linking efficiency with Nck; also recorded: noticeable reactivity
